“And” between values parts separate entries of the source, which are not always exact repeats. Equal entries are not always repeated. Where two headings read alike, the source gives them in different places.
How the values were obtained:
Assay type in all cases: in vivo
Euphorbia heterophylla [1] = assay: Greenhouse pre-emergence (PRE) herbicidal test on EPHHL; conditions: Euphorbia heterophylla, pre-emergence; for inhibition at 2 g/ha: use rate 2 gai/ha
Summary of the method: (§1)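 Visual 0–100 rating at 20 days after treatment; 0 = normal growth, 100 = no emergence or complete kill of shoots. Pre-emergent application to seeded pots of loamy sand (~3.0% humus), species-dependent temperature 10-25° C or 20-35° C.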

Ipomoea hederacea = assay: Greenhouse post-emergence (POST) herbicidal test on IPOHE; conditions: Ipomoea hederacea, post-emergence
Summary of the method: (§2)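 Plants grown in pots of loamy sand (~3.0% humus) to 3–15 cm height, then sprayed with compounds suspended or emulsified in water (formulated as 5% by weight emulsion concentrate). Kept at 10-25° C or 20-35° C by species; injury scored 0–100 (100 = complete destruction) at 20 DAT.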

Abutilon theophrasti = assay: Greenhouse pre-emergence (PRE) herbicidal test on ABUTH; conditions: Abutilon theophrasti, pre-emergence, PRE; for pest or weed control at 2 g/ha: I-3 solo 2 gai/ha
Summary of the method: as §1

Euphorbia heterophylla [2] = assay: Greenhouse post-emergence (POST) herbicidal test on EPHHL; conditions: Euphorbia heterophylla, post-emergence; for inhibition at 2 g/ha: use rate 2 gai/ha; for inhibition at 4 g/ha: use rate 4 gai/ha; for inhibition at 8 g/ha: use rate 8 gai/ha
Summary of the method: as §2

Galium aparine = assay: Greenhouse pre-emergence (PRE) herbicidal test on GALAP; conditions: Galium aparine, pre-emergence, PRE, GALAP
Summary of the method: (§3)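 Damage was rated visually on a 0 to 100 scale at 20 days after treatment, where 0 meant normal growth and 100 meant no emergence or complete kill of above-ground parts. Compounds were applied in water to freshly sown loamy-sand pots.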

Setaria viridis = assay: Greenhouse pre-emergence (PRE) herbicidal test on SETVI; conditions: Setaria viridis, pre-emergence, 480 h, 20 DAT
Summary of the method: as §3

Digitaria sanguinalis = assay: Greenhouse post-emergence (POST) herbicidal test on DIGSA; conditions: for pest or weed control at 2 g/ha: I-3 solo 2 gai/ha
Summary of the method: as §2

[3] = 480 h, POST, EPHHL, 20 DAT, read-out: solo application % activity

In the case of `COc1c(Cl)cc(F)c(F)c1Nc1nc(N)nc(C(C)(C)F)n1` [Compound I-3], the inhibition at 8 g/ha (Euphorbia heterophylla [1]; 480 h, PRE, EPHHL, 8 gai/ha, 20 DAT, read-out: % activity solo application) is reported as 50%, the pest or weed control at 8 g/ha (Euphorbia heterophylla [1]; 480 h, PRE, EPHHL, I-3 solo 8 gai/ha, 20 DAT) is reported as 20% and the inhibition at 2 g/ha (Euphorbia heterophylla [1]; 480 h, PRE, EPHHL, 20 DAT, read-out: solo application % activity) is reported as 10%. The inhibition at 8 g/ha (Euphorbia heterophylla [1]; 480 h, PRE, EPHHL, use rate 8 gai/ha, 20 DAT, read-out: solo application % activity) was 50%, the inhibition at 8 g/ha (Euphorbia heterophylla [1]; EPHHL PRE, use rate 8 gai/ha, read-out: % activity) was 55% and the inhibition at 2 g/ha (Euphorbia heterophylla [1]; PRE, EPPHL, read-out: % activity) was 45%. The inhibition at 8 g/ha (Euphorbia heterophylla [1]; PRE, EPPHL, use rate 8 gai/ha, read-out: % activity) was 80%, the pest or weed control at 8 g/ha (Ipomoea hederacea; 480 h, POST, 8 gai/ha, 20 DAT) was 90% and the inhibition at 2 g/ha (Ipomoea hederacea; 480 h, POST, IPOHE, 2 gai/ha, 20 DAT, read-out: % activity solo application) was 80%. It also gave an inhibition at 8 g/ha (Ipomoea hederacea; 480 h, POST, IPOHE, 8 gai/ha, 20 DAT, read-out: % activity solo application) of 70%, an inhibition at 2 g/ha (Ipomoea hederacea; IPOHE POST, use rate 2 gai/ha, read-out: % activity) of 65% and a pest or weed control at 2 g/ha (Abutilon theophrasti; 432 h, ABUTH, 18 DAT) of 70%. For the same molecule, the pest or weed control at 8 g/ha (Abutilon theophrasti; 480 h, 8 gai/ha, 20 DAT) was 70%, the inhibition at 2 g/ha (Abutilon theophrasti; 480 h, ABUTH, 2 gai/ha, 20 DAT, read-out: % activity solo application) was 25% and the inhibition at 8 g/ha (Abutilon theophrasti; 480 h, ABUTH, 8 gai/ha, 20 DAT, read-out: % activity solo application) was 80%. The pest or weed control at 2 g/ha (Abutilon theophrasti; 480 h, ABUTH, 20 DAT) was 10%, the inhibition at 2 g/ha (Abutilon theophrasti; 480 h, ABUTH, use rate 2 gai/ha, 20 DAT, read-out: solo application % activity) was 25% and the inhibition at 8 g/ha (Abutilon theophrasti; 480 h, ABUTH, use rate 8 gai/ha, 20 DAT, read-out: % activity) was 70%. For the same molecule, the inhibition at 8 g/ha (Abutilon theophrasti; 480 h, ABUTH, use rate 8 gai/ha, 20 DAT, read-out: solo application % activity) was 85%, the inhibition at 2 g/ha (Abutilon theophrasti; 480 h, use rate 2 gai/ha, 20 DAT, read-out: % activity) was 10% and the inhibition at 2 g/ha (Abutilon theophrasti; ABUTH, use rate 2 gai/ha, read-out: % activity) was 65%. For the same molecule, the inhibition at 4 g/ha (Abutilon theophrasti; ABUTH, use rate 4 gai/ha) was 65%, the inhibition at 2 g/ha (Euphorbia heterophylla [2]; 480 h, EPHHL POST, 20 DAT, read-out: % activity) was 25% and the pest or weed control at 8 g/ha (Euphorbia heterophylla [2]; 480 h, POST, 8 gai/ha, 20 DAT) was 60%. It also gave an inhibition at 2 g/ha (Euphorbia heterophylla [2]; [3]) of 20%, an inhibition at 4 g/ha (Euphorbia heterophylla [2]; 480 h, POST, EPHHL, 20 DAT) of 65% and an inhibition at 8 g/ha (Euphorbia heterophylla [2]; [3]) of 50%. It also gave an inhibition at 8 g/ha (Euphorbia heterophylla [2]; EPHHL POST, read-out: % activity) of 60%, an inhibition at 4 g/ha (Euphorbia heterophylla [2]; POST, EPHHL) of 60% and an inhibition at 2 g/ha (Galium aparine; use rate 2 gai/ha) of 15%. For the same molecule, the inhibition at 8 g/ha (Galium aparine; use rate 8 gai/ha) was 75%, the pest or weed control at 2 g/ha (Setaria viridis; PRE, 2 gai/ha) was 60% and the inhibition at 2 g/ha (Setaria viridis; PRE, SETVI, 2 gai/ha, read-out: % activity solo application) was 50%. For the same molecule, the inhibition at 2 g/ha (Setaria viridis; PRE, SETVI, use rate 2 gai/ha, read-out: solo application % activity) was 20%, the inhibition at 2 g/ha (Setaria viridis; SETVI PRE, use rate 2 gai/ha, read-out: % activity) was 60% and the “% activity” value (Digitaria sanguinalis; DIGSA POST, use rate 2 gai/ha) was 0%. For the same molecule, the “% activity” value (Digitaria sanguinalis; DIGSA POST, use rate 8 gai/ha) was 75% and 50%, the inhibition at 2 g/ha (Digitaria sanguinalis; Digitaria sanguinalis, post-emergence, 432 h, POST, DIGSA, 2 gai/ha, 18 DAT, read-out: % activity solo application) was 10% and the inhibition at 8 g/ha (Digitaria sanguinalis; Digitaria sanguinalis, post-emergence, 432 h, POST, DIGSA, 8 gai/ha, 18 DAT, read-out: % activity solo application) was 10%. The pest or weed control at 2 g/ha (Digitaria sanguinalis; Digitaria sanguinalis, post-emergence, 432 h, POST, DIGSA, 18 DAT) was 10%, the pest or weed control at 8 g/ha (Digitaria sanguinalis; Digitaria sanguinalis, post-emergence, 432 h, POST, DIGSA, I-3 solo 8 gai/ha, 18 DAT) was 10% and the inhibition at 8 g/ha (Digitaria sanguinalis; Digitaria sanguinalis, post-emergence, 480 h, DIGSA POST, 20 DAT, use rate 8 gai/ha, read-out: % activity) was 40%. The pest or weed control at 8 g/ha (Digitaria sanguinalis; Digitaria sanguinalis, post-emergence, 480 h, POST, 8 gai/ha, 20 DAT) was 40%, the inhibition at 8 g/ha (Digitaria sanguinalis; Digitaria sanguinalis, post-emergence, 480 h, POST, DIGSA, 8 gai/ha, 20 DAT, read-out: % activity solo application) was 85% and the pest or weed control at 2 g/ha (Digitaria sanguinalis; Digitaria sanguinalis, post-emergence, 480 h, POST, DIGSA, 20 DAT) was 5%. For the same molecule, the inhibition at 8 g/ha (Digitaria sanguinalis; Digitaria sanguinalis, post-emergence, 480 h, POST, DIGSA, use rate 8 gai/ha, 20 DAT, read-out: solo application % activity) was 10% and the “solo application % activity” value (Digitaria sanguinalis; POST, DIGSA, use rate 2 gai/ha, 20 DAT) was 0%.
